Converted amounts (≈) assume the structure as drawn.
Tests used:
Format in all cases: functional
[1] = tested on: Neisseria gonorrhoeae; assay: Antimicrobial activity against Neisseria gonorrhoeae isolates harboring non-mosaic penicillin-binding protein 2 penA by Etest
[2] = tested on: Neisseria gonorrhoeae; assay: Antimicrobial activity against multidrug-resistant Neisseria gonorrhoeae isolates by Etest
[3] = tested on: Neisseria gonorrhoeae; assay: Antimicrobial activity against multidrug-resistant Neisseria gonorrhoeae isolates harboring mosaic penicillin-binding protein 2 penA by Etest
[4] = tested on: Neisseria gonorrhoeae; assay: Antimicrobial activity against Neisseria gonorrhoeae isolates harboring non-mosaic penicillin-binding protein 2 penA assessed as resistant isolates by disk susceptibility test
[5] = tested on: Neisseria gonorrhoeae; assay: Antimicrobial activity against multidrug-resistant Neisseria gonorrhoeae isolates harboring mosaic penicillin-binding protein 2 penA assessed as resistant isolates by disk susceptibility test
[6] = tested on: Neisseria gonorrhoeae; assay: Antimicrobial activity against multidrug-resistant Neisseria gonorrhoeae isolates assessed as resistant isolates by disk susceptibility test

| SMILES | MIC [1] [µg/mL] | MIC [2] [µg/mL] | MIC [3] [µg/mL] | Activity [4] [%] | Activity [5] [%] | Activity [6] [%] |
| --- | --- | --- | --- | --- | --- | --- |
| C=CC1=C(C(=O)O)N2C(=O)[C@@H](NC(=O)/C(=N\OCC(=O)O)c3csc(N)n3)[C@H]2SC1 [CEFIXIME] | 0.016 (≈ 0.0353 µM) | 0.016 (≈ 0.0353 µM) | 0.125 (≈ 0.276 µM) | – | – | – |
| CO/N=C(\C(=O)N[C@@H]1C(=O)N2C(C(=O)O)=C(CSc3nc(=O)c(O)nn3C)CS[C@H]12)c1csc(N)n1 [CEFTRIAXONE] | 0.002 (≈ 0.00361 µM) | 0.002 (≈ 0.00361 µM) | 0.023 (≈ 0.0415 µM) | – | – | – |
| O=C(O)c1cn(C2CC2)c2cc(N3CCNCC3)c(F)cc2c1=O [CIPROFLOXACIN] | – | – | – | 84.3 | 100 | 88.6 |
| CC1(C)S[C@@H]2[C@H](NC(=O)Cc3ccccc3)C(=O)N2[C@H]1C(=O)O [PENICILLIN G] | – | – | – | 58.9 | 71 | 62.2 |
